What follows are molecules tested on LNCaP C4-2B (assay: Anticlonogenic activity against human C4-2B cells after 14 days by crystal violet staining based assay). Settings: not given; call rule not given here.
Assay type: functional, cell-based
`COc1ccc2c(c1)c(C(=O)Nc1cc(C(=O)OC(C)(C)C)cc(-c3cnn(C)c3)c1)cn2C(C)=O` was tested, and the Activity was “Dose-dependent effect”.

Each molecule was assayed on LNCaP C4-2B (assay: Anticlonogenic activity against human C4-2B cells at 4 uM after 14 days by crystal violet staining based assay relative to control). Settings: not given.
Assay type: functional
`COc1ccc2c(c1)c(C(=O)Nc1cc(C(=O)OC(C)(C)C)cc(-c3cnn(C)c3)c1)cn2C(C)=O` was tested, and the Activity was <10%.

What follows are molecules tested on CWR22R (assay: cells). Settings: Homo sapiens, 22Rv1, 72 h.
Description: Antiproliferative activity against human 22Rv1 cells after 72 hrs by Cell-Titer Glo assay
In the case of `COc1ccc2c(c1)c(C(=O)Nc1cc(C(=O)OC(C)(C)C)cc(-c3cnn(C)c3)c1)cn2C(C)=O`, the IC50 is reported as 2.22 µM.
With `COc1ccc2c(c1)c(C(=O)Nc1cc(C(=O)OC(C)(C)C)cc(-c3ccco3)c1)cn2C(C)=O` the IC50 was 4.31 µM.

The molecules below were run on CWR22R (assay: not given). Settings: not given.
With `COc1ccc(CCc2nc3cc(-c4c(C)noc4C)ccc3n2C[C@H](C)N2CCOCC2)cc1Cl` the IC50 was “Not Active”.

The molecules below were run against T1, Bromodomain-containing protein 9 (Homo sapiens, UniProt Q9H8M2) (assay: Inhibition of biotinylated-H4KAc4 binding to human His6-tagged BRD9 (L14 to Q134 residues) expressed in Escherichia coli BL21(DE3) after 2.5 hrs by luminescence-based AlphaScreen assay). Settings: not given.
T1 sequence (Q9H8M2 whole entry): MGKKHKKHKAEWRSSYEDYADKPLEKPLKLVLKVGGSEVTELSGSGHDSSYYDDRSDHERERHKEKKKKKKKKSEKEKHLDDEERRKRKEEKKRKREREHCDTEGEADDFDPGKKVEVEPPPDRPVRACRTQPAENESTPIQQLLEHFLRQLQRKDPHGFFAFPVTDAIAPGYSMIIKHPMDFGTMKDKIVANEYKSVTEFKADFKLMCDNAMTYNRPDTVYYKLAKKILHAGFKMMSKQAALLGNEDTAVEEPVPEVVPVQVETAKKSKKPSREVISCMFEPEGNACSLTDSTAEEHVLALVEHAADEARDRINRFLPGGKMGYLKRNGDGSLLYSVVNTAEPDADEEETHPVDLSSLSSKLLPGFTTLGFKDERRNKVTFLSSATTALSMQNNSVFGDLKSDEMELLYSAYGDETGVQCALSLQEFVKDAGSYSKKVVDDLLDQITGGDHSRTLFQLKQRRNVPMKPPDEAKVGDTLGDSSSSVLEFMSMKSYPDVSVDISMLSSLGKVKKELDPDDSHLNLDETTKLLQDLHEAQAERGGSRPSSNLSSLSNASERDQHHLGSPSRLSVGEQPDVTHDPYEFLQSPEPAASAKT
With `COc1ccc(CCc2nc3cc(-c4c(C)noc4C)ccc3n2C[C@H](C)N2CCOCC2)cc1Cl` the IC50 was > 20 µM.

The molecules below were run against T2, Bromodomain-containing protein 4 (Homo sapiens, UniProt O60885) (assay: Inhibition of biotinylated-H4KAc4 binding to human His6-tagged BRD4 bromodomain-1 (N44 to E168 residues) expressed in Escherichia coli BL21(DE3) after 2.5 hrs by luminescence-based AlphaScreen assay). Settings: not given.
In the case of `COc1ccc(CCc2nc3cc(-c4c(C)noc4C)ccc3n2C[C@H](C)N2CCOCC2)cc1Cl`, the IC50 is reported as > 20 µM.

The molecules below were run against Histone acetyltransferase KAT2B (Homo sapiens, UniProt Q92831) (assay: Inhibition of biotinylated-H4KAc4 binding to human His6-tagged PCAF (G715 to D831 residues) expressed in Escherichia coli BL21(DE3) after 2.5 hrs by luminescence-based AlphaScreen assay). Settings: not given.
Chain of Histone acetyltransferase KAT2B (Q92831 whole entry, the tested form may be a part): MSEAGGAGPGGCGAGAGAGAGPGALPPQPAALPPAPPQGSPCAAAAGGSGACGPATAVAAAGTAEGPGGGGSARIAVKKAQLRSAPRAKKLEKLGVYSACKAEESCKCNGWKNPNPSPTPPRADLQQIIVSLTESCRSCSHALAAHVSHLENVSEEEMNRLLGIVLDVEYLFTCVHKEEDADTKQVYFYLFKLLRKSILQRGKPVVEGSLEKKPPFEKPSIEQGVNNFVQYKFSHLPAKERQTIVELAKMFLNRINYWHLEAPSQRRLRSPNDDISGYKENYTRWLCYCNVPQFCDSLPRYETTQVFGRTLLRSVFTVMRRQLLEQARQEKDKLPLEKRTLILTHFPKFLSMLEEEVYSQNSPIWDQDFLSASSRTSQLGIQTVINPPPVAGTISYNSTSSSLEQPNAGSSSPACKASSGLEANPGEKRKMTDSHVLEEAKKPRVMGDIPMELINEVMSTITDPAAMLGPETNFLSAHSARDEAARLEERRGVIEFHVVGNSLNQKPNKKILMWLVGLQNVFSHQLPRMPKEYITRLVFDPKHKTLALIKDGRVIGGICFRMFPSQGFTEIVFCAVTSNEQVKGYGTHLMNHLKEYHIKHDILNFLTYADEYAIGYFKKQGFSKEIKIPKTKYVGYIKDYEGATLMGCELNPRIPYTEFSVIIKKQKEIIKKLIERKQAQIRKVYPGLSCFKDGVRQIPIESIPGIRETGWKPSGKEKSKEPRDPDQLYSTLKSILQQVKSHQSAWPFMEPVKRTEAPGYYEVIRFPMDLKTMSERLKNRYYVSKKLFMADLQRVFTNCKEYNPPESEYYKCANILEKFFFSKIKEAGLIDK
In the case of `COc1ccc(CCc2nc3cc(-c4c(C)noc4C)ccc3n2C[C@H](C)N2CCOCC2)cc1Cl`, the IC50 is reported as > 20 µM.

What follows are molecules tested against T3, Bromodomain adjacent to zinc finger domain protein 2B (Homo sapiens, UniProt Q9UIF8) (assay: Inhibition of biotinylated-H4KAc4 binding to human His6-tagged BAZ2B (S1858 to S1972 residues) expressed in Escherichia coli BL21(DE3) at 50 uM after 2.5 hrs by luminescence-based AlphaScreen assay relative to control). Settings: not given.
T3 sequence (Q9UIF8 whole entry, the tested form may be a part): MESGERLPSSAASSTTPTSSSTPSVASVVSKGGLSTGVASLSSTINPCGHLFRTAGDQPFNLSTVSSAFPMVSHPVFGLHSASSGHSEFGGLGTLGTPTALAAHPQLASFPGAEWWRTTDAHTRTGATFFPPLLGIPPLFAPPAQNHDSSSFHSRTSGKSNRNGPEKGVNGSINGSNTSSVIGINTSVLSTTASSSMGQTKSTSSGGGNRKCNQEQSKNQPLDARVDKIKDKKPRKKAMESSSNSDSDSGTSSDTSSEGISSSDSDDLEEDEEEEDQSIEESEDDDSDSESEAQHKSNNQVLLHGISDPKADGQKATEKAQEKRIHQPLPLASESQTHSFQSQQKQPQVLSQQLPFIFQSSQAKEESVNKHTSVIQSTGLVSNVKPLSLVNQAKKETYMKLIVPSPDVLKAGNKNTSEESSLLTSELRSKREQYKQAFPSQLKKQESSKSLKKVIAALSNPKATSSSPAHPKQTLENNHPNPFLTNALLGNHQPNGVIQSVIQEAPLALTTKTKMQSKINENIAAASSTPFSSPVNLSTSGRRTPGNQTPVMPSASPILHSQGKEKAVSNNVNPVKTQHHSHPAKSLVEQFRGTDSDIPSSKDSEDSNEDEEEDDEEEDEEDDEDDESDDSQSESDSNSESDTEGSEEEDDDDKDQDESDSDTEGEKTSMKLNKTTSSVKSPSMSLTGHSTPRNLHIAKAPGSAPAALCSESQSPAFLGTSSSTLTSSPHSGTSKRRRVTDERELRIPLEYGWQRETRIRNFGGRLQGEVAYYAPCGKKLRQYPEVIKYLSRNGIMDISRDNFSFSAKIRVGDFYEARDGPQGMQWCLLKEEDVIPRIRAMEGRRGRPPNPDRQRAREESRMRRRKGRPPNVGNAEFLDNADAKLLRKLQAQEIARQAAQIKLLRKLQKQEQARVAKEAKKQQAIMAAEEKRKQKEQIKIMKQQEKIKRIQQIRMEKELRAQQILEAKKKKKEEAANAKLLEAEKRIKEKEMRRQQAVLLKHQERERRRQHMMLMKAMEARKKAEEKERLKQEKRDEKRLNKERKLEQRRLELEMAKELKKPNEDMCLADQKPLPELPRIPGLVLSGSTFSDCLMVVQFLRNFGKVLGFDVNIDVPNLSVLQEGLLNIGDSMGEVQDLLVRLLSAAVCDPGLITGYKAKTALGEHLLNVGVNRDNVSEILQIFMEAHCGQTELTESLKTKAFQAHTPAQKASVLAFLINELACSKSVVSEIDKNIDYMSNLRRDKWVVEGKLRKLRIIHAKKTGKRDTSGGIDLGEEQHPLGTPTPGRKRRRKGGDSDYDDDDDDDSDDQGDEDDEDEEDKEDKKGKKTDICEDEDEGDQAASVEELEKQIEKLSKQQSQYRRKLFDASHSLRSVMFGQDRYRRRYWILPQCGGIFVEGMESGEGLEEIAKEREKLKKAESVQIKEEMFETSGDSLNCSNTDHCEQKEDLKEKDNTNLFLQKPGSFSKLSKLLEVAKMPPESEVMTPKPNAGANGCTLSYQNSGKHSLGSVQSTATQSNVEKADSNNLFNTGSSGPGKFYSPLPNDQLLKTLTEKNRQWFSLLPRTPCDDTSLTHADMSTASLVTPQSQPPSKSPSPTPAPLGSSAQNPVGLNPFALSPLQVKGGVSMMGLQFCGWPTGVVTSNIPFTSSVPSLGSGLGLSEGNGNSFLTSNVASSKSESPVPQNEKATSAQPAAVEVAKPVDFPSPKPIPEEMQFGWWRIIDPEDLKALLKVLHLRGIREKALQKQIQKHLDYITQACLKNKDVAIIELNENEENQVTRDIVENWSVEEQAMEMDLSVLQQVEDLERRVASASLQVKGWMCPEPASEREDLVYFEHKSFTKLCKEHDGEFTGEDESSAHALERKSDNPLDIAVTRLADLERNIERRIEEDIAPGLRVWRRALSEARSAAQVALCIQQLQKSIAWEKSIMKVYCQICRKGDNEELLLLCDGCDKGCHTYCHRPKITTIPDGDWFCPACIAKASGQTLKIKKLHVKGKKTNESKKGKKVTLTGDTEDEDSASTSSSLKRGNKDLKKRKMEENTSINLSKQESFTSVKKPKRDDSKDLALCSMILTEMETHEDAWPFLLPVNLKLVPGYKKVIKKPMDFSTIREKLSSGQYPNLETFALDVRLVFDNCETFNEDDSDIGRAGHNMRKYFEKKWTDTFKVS
Molecule `COc1ccc(CCc2nc3cc(-c4c(C)noc4C)ccc3n2C[C@H](C)N2CCOCC2)cc1Cl` has an inhibition of 41%.

What follows are molecules tested against Transcription initiation factor TFIID subunit 1 (Homo sapiens, UniProt P21675) (assay: Inhibition of biotinylated-H4KAc4 binding to human His6-tagged TAF-1 (R1377 to D1503 residues) expressed in Escherichia coli BL21(DE3) after 2.5 hrs by luminescence-based AlphaScreen assay). Settings: not given.
Chain of Transcription initiation factor TFIID subunit 1 (P21675 whole entry, the tested form may be a part): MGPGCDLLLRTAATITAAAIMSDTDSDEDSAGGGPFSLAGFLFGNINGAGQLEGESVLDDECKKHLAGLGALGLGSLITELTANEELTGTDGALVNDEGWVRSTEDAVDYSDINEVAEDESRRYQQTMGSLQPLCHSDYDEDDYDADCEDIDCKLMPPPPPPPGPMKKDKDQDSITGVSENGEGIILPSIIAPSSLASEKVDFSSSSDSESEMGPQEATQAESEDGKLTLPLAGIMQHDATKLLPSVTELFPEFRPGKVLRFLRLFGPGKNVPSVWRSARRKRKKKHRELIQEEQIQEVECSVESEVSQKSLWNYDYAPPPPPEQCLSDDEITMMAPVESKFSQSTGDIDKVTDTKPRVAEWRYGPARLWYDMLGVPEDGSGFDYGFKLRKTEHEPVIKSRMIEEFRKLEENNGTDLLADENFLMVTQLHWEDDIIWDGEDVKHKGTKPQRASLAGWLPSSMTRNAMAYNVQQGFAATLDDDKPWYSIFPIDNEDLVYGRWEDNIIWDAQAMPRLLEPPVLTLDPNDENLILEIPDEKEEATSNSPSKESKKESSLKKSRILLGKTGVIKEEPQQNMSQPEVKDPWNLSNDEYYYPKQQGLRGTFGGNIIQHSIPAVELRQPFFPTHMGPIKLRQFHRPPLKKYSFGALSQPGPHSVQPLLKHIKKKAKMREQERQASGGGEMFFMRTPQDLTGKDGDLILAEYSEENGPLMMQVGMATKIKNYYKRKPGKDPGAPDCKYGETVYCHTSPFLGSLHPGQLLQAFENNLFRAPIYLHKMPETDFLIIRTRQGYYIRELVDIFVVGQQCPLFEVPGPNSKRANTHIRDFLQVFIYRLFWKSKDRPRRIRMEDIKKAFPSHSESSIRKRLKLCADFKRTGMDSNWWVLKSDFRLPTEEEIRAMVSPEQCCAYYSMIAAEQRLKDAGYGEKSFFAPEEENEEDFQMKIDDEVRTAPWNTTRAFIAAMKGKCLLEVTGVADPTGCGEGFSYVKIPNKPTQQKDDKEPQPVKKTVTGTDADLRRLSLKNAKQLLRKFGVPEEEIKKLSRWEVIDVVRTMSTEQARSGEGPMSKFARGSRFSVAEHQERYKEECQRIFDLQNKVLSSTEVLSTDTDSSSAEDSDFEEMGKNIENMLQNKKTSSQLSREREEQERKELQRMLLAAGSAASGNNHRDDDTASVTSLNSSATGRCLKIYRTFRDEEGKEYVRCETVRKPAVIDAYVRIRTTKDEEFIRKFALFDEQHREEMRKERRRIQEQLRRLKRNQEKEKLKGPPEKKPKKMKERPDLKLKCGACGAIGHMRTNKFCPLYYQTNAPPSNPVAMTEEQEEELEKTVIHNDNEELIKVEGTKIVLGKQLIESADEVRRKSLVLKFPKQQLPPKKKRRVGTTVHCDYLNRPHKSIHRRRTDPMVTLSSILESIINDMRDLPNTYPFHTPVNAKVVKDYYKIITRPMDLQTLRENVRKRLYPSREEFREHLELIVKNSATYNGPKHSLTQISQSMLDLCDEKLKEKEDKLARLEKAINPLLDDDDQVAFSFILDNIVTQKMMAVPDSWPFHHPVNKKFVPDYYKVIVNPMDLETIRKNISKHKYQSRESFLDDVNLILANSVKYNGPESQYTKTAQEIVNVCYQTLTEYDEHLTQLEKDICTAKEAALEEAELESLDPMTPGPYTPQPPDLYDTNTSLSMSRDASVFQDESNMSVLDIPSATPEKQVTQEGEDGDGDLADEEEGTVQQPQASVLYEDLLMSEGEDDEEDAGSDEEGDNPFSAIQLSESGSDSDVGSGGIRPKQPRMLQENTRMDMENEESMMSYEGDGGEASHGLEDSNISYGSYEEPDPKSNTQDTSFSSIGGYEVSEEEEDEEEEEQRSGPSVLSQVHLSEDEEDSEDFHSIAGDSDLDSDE
`COc1ccc(CCc2nc3cc(-c4c(C)noc4C)ccc3n2C[C@H](C)N2CCOCC2)cc1Cl` was tested, and the IC50 was > 20 µM.

What follows are molecules tested on LNCaP (assay: Antiproliferative activity against human LNCAP cells after 72 hrs by Cell-Titer Glo assay). Settings: Homo sapiens, LNCaP, 72 h; read-out: IC50.
Assay type: functional, cell-based
`COc1ccc2c(c1)c(C(=O)Nc1cc(C(=O)OC(C)(C)C)cc(-c3cnn(C)c3)c1)cn2C(C)=O` was tested, and the IC50 was 1.28 µM.
With `COc1ccc2c(c1)c(C(=O)Nc1cc(C(=O)OC(C)(C)C)cc(-c3ccco3)c1)cn2C(C)=O` the IC50 was 1.76 µM.

Same assay, conditions: lncap
In the case of `COc1ccc(CCc2nc3cc(-c4c(C)noc4C)ccc3n2C[C@H](C)N2CCOCC2)cc1Cl`, the IC50 is reported as “Not Active”.

What follows are molecules tested on CWR22R (assay: Anticlonogenic activity against human 22Rv1 cells after 14 days by crystal violet staining based assay). Settings: not given.
Assay type: functional, cell-based
For `COc1ccc2c(c1)c(C(=O)Nc1cc(C(=O)OC(C)(C)C)cc(-c3cnn(C)c3)c1)cn2C(C)=O`, the Activity was “Dose-dependent effect”.

The molecules below were run against T4, Transcription intermediary factor 1-alpha (Homo sapiens, UniProt O15164) (assay: Inhibition of biotinylated-H4KAc4 binding to human His6-tagged TIF-1 (G896 to E1014 residues) expressed in Escherichia coli BL21(DE3) after 2.5 hrs by luminescence-based AlphaScreen assay). Settings: not given.
T4 sequence (O15164 whole entry): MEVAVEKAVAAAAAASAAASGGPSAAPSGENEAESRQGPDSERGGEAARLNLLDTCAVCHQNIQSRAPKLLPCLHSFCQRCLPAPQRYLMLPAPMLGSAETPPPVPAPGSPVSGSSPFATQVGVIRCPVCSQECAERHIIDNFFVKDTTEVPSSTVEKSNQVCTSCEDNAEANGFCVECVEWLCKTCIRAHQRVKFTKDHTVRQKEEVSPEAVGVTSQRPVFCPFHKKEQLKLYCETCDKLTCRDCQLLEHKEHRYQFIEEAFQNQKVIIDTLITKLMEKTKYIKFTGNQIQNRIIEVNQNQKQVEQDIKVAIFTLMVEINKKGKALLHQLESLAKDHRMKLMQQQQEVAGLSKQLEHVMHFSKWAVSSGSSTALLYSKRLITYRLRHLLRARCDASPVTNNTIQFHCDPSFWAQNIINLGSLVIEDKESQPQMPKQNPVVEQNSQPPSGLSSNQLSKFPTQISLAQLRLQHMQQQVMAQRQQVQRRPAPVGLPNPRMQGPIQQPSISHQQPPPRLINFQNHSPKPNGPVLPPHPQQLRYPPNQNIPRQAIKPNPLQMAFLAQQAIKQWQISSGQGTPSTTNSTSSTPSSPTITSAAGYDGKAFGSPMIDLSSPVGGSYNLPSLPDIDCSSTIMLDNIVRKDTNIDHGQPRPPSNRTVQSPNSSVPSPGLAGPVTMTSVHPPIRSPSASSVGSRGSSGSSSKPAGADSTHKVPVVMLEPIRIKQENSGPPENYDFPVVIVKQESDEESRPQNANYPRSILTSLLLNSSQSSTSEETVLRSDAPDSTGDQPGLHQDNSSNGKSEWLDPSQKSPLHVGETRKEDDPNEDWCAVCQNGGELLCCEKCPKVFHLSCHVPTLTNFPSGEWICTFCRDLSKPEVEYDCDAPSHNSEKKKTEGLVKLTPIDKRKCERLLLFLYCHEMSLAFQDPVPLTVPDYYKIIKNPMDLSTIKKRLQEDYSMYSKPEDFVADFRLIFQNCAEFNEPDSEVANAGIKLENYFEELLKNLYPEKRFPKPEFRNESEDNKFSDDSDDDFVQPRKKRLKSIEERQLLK
With `COc1ccc(CCc2nc3cc(-c4c(C)noc4C)ccc3n2C[C@H](C)N2CCOCC2)cc1Cl` the IC50 was > 20 µM.

Each molecule was assayed against T3, Bromodomain adjacent to zinc finger domain protein 2B (assay: Inhibition of biotinylated-H4KAc4 binding to human His6-tagged BAZ2B (S1858 to S1972 residues) expressed in Escherichia coli BL21(DE3) after 2.5 hrs by luminescence-based AlphaScreen assay). Settings: not given.
For `COc1ccc(CCc2nc3cc(-c4c(C)noc4C)ccc3n2C[C@H](C)N2CCOCC2)cc1Cl`, the IC50 was > 20 µM.

The molecules below were run against T2, Bromodomain-containing protein 4 (assay: Inhibition of biotinylated-H4KAc4 binding to human His6-tagged BRD4 bromodomain-1 (N44 to E168 residues) expressed in Escherichia coli BL21(DE3) at 50 uM after 2.5 hrs by luminescence-based AlphaScreen assay relative to control). Settings: not given.
`COc1ccc(CCc2nc3cc(-c4c(C)noc4C)ccc3n2C[C@H](C)N2CCOCC2)cc1Cl` gave an inhibition of 62%.

What follows are molecules tested on LNCaP (assay: Potency index, ratio of enzalutamide IC50 to compound IC50 for antiproliferative activity against human LNCAP cells). Settings: not given.
Assay type: functional
For `COc1ccc2c(c1)c(C(=O)Nc1cc(C(=O)OC(C)(C)C)cc(-c3cnn(C)c3)c1)cn2C(C)=O`, the “Ratio IC50” value was 17.
In the case of `COc1ccc2c(c1)c(C(=O)Nc1cc(C(=O)OC(C)(C)C)cc(-c3ccco3)c1)cn2C(C)=O`, the “Ratio IC50” value is reported as 17.

Each molecule was assayed on CWR22R (assay: Potency index, ratio of enzalutamide IC50 to compound IC50 for antiproliferative activity against human 22Rv1 cells). Settings: not given.
Assay type: functional
For `COc1ccc2c(c1)c(C(=O)Nc1cc(C(=O)OC(C)(C)C)cc(-c3cnn(C)c3)c1)cn2C(C)=O`, the “Ratio IC50” value was 17.
With `COc1ccc2c(c1)c(C(=O)Nc1cc(C(=O)OC(C)(C)C)cc(-c3ccco3)c1)cn2C(C)=O` the “Ratio IC50” value was 17.

The molecules below were run on CWR22R (assay: Anticlonogenic activity against human 22Rv1 cells at 4 uM after 14 days by crystal violet staining based assay relative to control). Settings: not given.
Assay type: functional
For `COc1ccc2c(c1)c(C(=O)Nc1cc(C(=O)OC(C)(C)C)cc(-c3cnn(C)c3)c1)cn2C(C)=O`, the Activity was <10%.
